Experimental data taken from patent US20250281480A1, “PHARMACEUTICAL DRY POWDER INHALATION FORMULATION” (Bayer Aktiengesellschaft, priority 2021, published 2025).

Experiments:
[1] = Particle size distribution by laser diffraction (D.4); format: physicochemical; details: after micronization, monohydrate II as starting material, 50 mm spiral jet mill; dry measurement 4 bar
Method: All measurements cited in the above tables were obtained by laser diffraction with dry dispersion using compressed air. Measuring in aqueous suspension with surfactants may lead to smaller particle sizes (×90 up to 1 μm smaller).
The particle size analysis data are usually reported as cumulative undersized distribution by volume. The symbol x is used to denote the particle size, which is defined as diameter of a volume equivalent sphere. Most common characteristic values are calculated from the particle size distribution by interpolation. Frequently used are the particle sizes at the undersize values of 10%, 50% and 90% of the volume distribution, denoted as ×10, ×50 and ×90. ×50 is also known as median particle size. The symbol dis widely used to designate the particle size, thus the symbol x may be replaced by the symbol d.

[2] = system: anesthetized thromboxane A2 challenged PAH-minipig; assay: Haemodynamics in the anesthetized thromboxane challenged minipig (PAH minipig), inhaled nebulized solution: lung selectivity and duration of action; format: in vivo, Göttingen Minipigs; details: inhaled; for PAP % changes vs prevalue: mean
Method: Healthy Göttingen Minipigs® Ellegaard (Ellegaard, Denmark) of both sexes and having a weight of 2-6 kg were used. The animals were sedated by i.m. administration of about 25 mg/kg ketamine and about 10 mg/kg azaperone. Anaesthesia was initiated by i.v. administration of about 2 mg/kg ketamine and about 0.3 mg/kg midazolam. Maintenance of anaesthesia was by i.v. administration of about 7.5-30 mg/kg/h ketamine and about 1-4 mg/kg/h midazolam (rate of infusion 1-4 ml/kg/h) and about 150 μg/kg/h pancuronium bromide (for example Pancuronium-Actavis). After intubation, the animals were ventilated by the ventilator at a constant respiratory volume (10-12 ml/kg, 35 breaths/min; Avea®, Viasys Healthcare, USA, or Engström Carestation, GE Healthcare, Freiburg, Germany) such that an end-tidal CO2 concentration of about 5% was achieved. Ventilation was performed with room air, enriched with about 40% oxygen (normoxia). For the measurement of the haemodynamic parameters such as pulmonary arterial pressure (PAP), blood pressure (BP) and heart rate (HR), catheters were inserted into the carotid artery to measure the blood pressure, and a Swan-Ganz® catheter was introduced in a flow-directed manner via the jugular vein into the pulmonary artery. The haemodynamic signals were recorded and evaluated by means of pressure transducers (Combitransducer, B. Braun, Melsungen, Germany)/amplifiers and Ponemah® as data acquisition software.
After the instruments have been placed into the animals, continuous infusion of a thromboxane A2 analog was initiated to increase the pulmonary arterial pressure. About 0.3-0.75 μg/kg/min of 9,11-didesoxy-9α,11α-epoxymethanoprostaglandine F2α (U-44069; Sigma, cat. no. D0400, or Cayman Chemical Company, cat. no. 16440), dissolved in physiological saline, were infused to achieve an increase of the mean pulmonary arterial pressure to values of over 25 mmHg. 30 minutes after the start of the infusion, a plateau was reached, and the experiment was started.
The test substances were administered as i.v. infusion or by inhalation. For the preparation of the solution for inhalation, the following procedure was adopted: For an animal having a weight of 4 kg, to prepare the stock solution (300 μg/kg), 1.2 mg of the test compound were weighed out and dissolved in a total volume of 3 ml (1% DMSO, 99% 0.2% strength citric acid solution, 1 n aqueous sodium hydroxide solution to adjust the pH to 8). The solution was then diluted to the concentration employed using 0.2% strength citric acid which had been adjusted to pH 8 beforehand with aqueous sodium hydroxide solution. In each test, 3 ml of the solution of test compound per 4 kg animal were nebulized in the inhalation arm of the respiratory circuit using the Aeroneb® Pro nebulizer system. The mean nebulization time was about 7 min from the start of the nebulization.
With respect to a prediction of the duration of action for human studies comparative example 11 was compared in the PAH minipig model after inhaled application to Ventavis® (=Iloprost, 10 μg/kg nominal dose), which we used as a clinical reference. […] Therefore, the duration of action is more than 6 times longer compared to Ventavis in this preclinical animal model.

plasma proteins [3] = assay: Protein binding via ultrafiltration assay; format: in vitro ADME
Source text: For this assay, filter membranes of 30 kDa pore size were used to separate plasma and protein free ultrafiltrate. The driving force for filtration was applied by centrifugation. Prior to protein binding studies, the adsorption (recovery) of the test compound to the ultra-filtration device and the ability of the test compound to pass the filter membrane was checked by filtration of the test compound dissolved in buffer at four concentrations. Sufficient stability of the test compound and an almost complete recovery (≥90% of the actual amount of compound used for the experiment) was a prerequisite for the use of the ultrafiltration method. The amount of organic solvent added to the plasma may not exceed 2% of the total incubation volume. Blood samples were collected in heparinized tubes either pooled (all species except human and monkey) or individually (human and monkey) and were used within 24 h for incubation experiments in blood. Plasma was prepared by centrifugation of the heparinized blood samples. Plasma was stored at −15° C. until use. Plasma stability, Compound recovery, unspecific binding to the membrane and the test device as well as partitioning between blood cells and plasma were controlled. The substance-associated radioactivity was determined by liquid scintillation counting. With this analytical method, it is not possible to distinguish between unchanged substance and radioactive metabolites. For details of the radioanalytical methods and the work up of the samples see Goeller et al. (3). A description of the ultrafiltration method in general was published by Zhang et al. In 2012 (4).

plasma proteins [4] = assay: Protein binding via Transil assay, human plasma; format: in vitro ADME; details: all tested species where comparative results are given
Source text: The distribution of a test substance between Transil® (phosphatidylcholine lipid bilayers immobilized on silica beads) and plasma is a characteristic feature of any pharmaceutical compound and is dependent on its extent of binding to plasma proteins. By comparing the distribution between Transil® and buffer with the distribution between Transil® and plasma of any species of interest, the unbound fraction in the plasma of the respective animal species can be calculated in vitro. The respective plasma and buffer concentrations were determined via a radioactivity analysis. A detailed description of the method and its validation was published by Schuhmacher et al. (2).

[5] = system: patients with pulmonary hypertension; details: clinical studies; cited from earlier work

Which results are given for `CCOC(=O)c1ccc2c(n1)CCCC2NCCc1ccccc1OCc1ccc(-c2ccc(C(F)(F)F)cc2)cc1Cl` (single isomer, unassigned) [Example 8a, Ethyl 5-{[2-(2-{[3-chloro-4′-(trifluoromethyl)biphenyl-4-yl]methoxy}phenyl)ethyl]amino}-5,6,7,8-tetrahydroquinoline-2-carboxylate]?
PSD X10 [1]: X10: 0.2 μm,; PSD X50 [1]: X50: 1.7 μm,; PSD X90 [1]: X90: 4.2 μm

Which duration of action ([2]; minipig model) does the source give for `O=C(O)c1ccc(CCN(CCc2cc(F)ccc2OCc2ccc(-c3nc4cc(Cl)ccc4o3)cc2)C2CCCc3nc(C(=O)O)ccc32)cc1` (single isomer, unassigned) [compound 4, 5-{[2-(4-Carboxyphenyl)ethyl][2-(2-{[4-(5-chloro-1,3-benzoxazol-2-yl)benzyl]oxy}-5-fluorophenyl)-ethyl]amino}-5,6,7,8-tetrahydroquinoline-2-carboxylic Acid, reference compound] here?
Its duration of action is “sufficient duration of action”.

With `COC(=O)N(C)c1c(N)nc(-c2nn(Cc3ccccc3F)c3ncccc23)nc1N` [Comparative example 2, Methyl-4,6-diamino-2-[1-(2-fluorobenzyl)-1H-pyrazolo[3,4-b]pyridine-3-yl]-5-pyrimidinyl(methyl)carbamate] as the compound, how does the “Fraction unbound (%)” value (plasma proteins [3]; Dog Beagle plasma) read?
Its value is 17.1%.

What about the “Fraction unbound (%)” value (plasma proteins [3]; Human (male) plasma) of the same compound?
The value was 4.97%.

What about the “Fraction unbound (%)” value (plasma proteins [3]; Rat Wistar plasma) of the same compound?
The value was 15.7%.

With `O=C(O)c1ccc(CCN(CCc2ccccc2OCc2ccc(-c3ccc(C(F)(F)F)cc3)cc2Cl)[C@H]2CCCc3nc(C(=O)O)ccc32)cc1` [Example 1, (5S)—{[2-(4-Carboxyphenyl)ethyl][2-(2-{[3-chloro-4′-(trifluoromethyl)biphenyl-4-yl]methoxy}phenyl)-ethyl]amino}-5,6,7,8-tetrahydroquinoline-2-carboxylic Acid Monohydrate II] as the compound, how does the “free fractions (comparison)” value (plasma proteins [4]) read?
The value was “lowest free fractions”.

Which results are given for `CC#CCC(C)[C@H](O)/C=C/[C@@H]1[C@H]2C/C(=C/CCCC(=O)O)C[C@H]2C[C@H]1O` (stereo partly shown) [Ventavis ®]?
PAP % changes vs prevalue ([2]; 10 μg/kg nominal dose, time 0 min): 0%; PAP % changes vs prevalue ([2]; 10 μg/kg nominal dose, time 10 min): −30.3%; PAP % changes vs prevalue ([2]; 10 μg/kg nominal dose, time 20 min): −20.7%; PAP % changes vs prevalue ([2]; 10 μg/kg nominal dose, time 30 min): −6.9%; PAP % changes vs prevalue ([2]; 10 μg/kg nominal dose, time 40 min): 1.7%; PAP % changes vs prevalue ([2]; 10 μg/kg nominal dose, time 50 min): 4.9%

For `CC#CCC(C)[C@H](O)/C=C/[C@@H]1[C@H]2C/C(=C/CCCC(=O)O)C[C@H]2C[C@H]1O` (stereo partly shown) [Ventavis, reference compound], which “maximal duration of action” value ([2]; 10 μg/kg nominal dose) is on record?
The value was “about 40 min”.

And the “duration of action on haemodynamics (PVR)” value [5]?
Its value is “about 60 min”.
